Structures are written as SMILES. Structures can show the parent of a compound that is named as a salt.

What is called melting point is the temperature of the solid-liquid transition.

As to `c1ccc(OC[C@@H]2CC[C@H]3CN(c4ccncn4)CCN3C2)cc1` (racemic), the melting point is > 265 °C (dec.). The value for `c1ccc(O[C@@H]2CC[C@H]3CN(c4ncccn4)CCN3C2)cc1` (racemic) was 147 to 148 °C; that for `Fc1ccc(OC[C@@H]2CC[C@H]3CN(c4cccnn4)CCN3C2)cc1` (racemic) (as salt: sulfate) [Example 35, (7RS,9aSR)-7-(4-Fluorophenoxy)methyl-2-(pyridazin-3-yl)-2,3,4,6,7,8,9,9a-octahydro-1H-pyrido[1,2-a]pyrazine] was 246 to 250 °C.

The compound `Fc1cnc(N2CCN3C[C@H](COc4ccccc4)CC[C@H]3C2)nc1` (racemic) [Example 5, (7RS,9aSR)-7-Phenoxymethyl-2-(5-fluoropyrimidin-2-yl)-2,3,4,6,7,8,9,9a-octahydro-1H-pyrido[1,2-a]pyrazine] registered a melting point of 215 to 217 °C. `Fc1ccc(OC[C@@H]2CC[C@H]3CN(c4ncc(Cl)cc4Cl)CCN3C2)cc1` (racemic) [Example 15, (7RS,9aSR)-7-(4-Fluorophenoxy)methyl-2-(3,5-dichloropyridin-2-yl)-2,3,4,6,7,8,9,9a-octahydro-1H-pyrido[1,2-a]pyrazine] showed a melting point of 247 to 248 °C.

As for `Clc1ccc(N2CCN3C[C@H](COc4ccccc4)CC[C@H]3C2)nc1` (racemic) [Example 17, (7RS,9aSR)-7-Phenoxymethyl-2-(5-chloropyridin-2-yl)-2,3,4,6,7,8,9,9a-octahydro-1H-pyrido[1,2-a]pyrazine], the melting point is 218 to 224 °C. Compound `N#Cc1cc(F)ccc1N1CCN2C[C@H](COc3ccc(F)cc3)CC[C@H]2C1` (racemic) [Example 23, (7RS,9aSR)-7-(4-Fluorophenoxy)methyl-2-(2-cyano-4-fluorophenyl)-2,3,4,6,7,8,9,9a-octahydro-1H-pyrido[1,2-a]pyrazine] gave a melting point of 235 to 240 °C. To `Fc1ccc(OC[C@@H]2CC[C@H]3CN(c4ccc(F)cn4)CCN3C2)cc1` (racemic) [Example 28, (7RS,9aSR)-7-(4-Fluorophenoxy)methyl-2,3,4,6,7,8,9,9a-octahydro-2-(5-fluoropyridin-2-yl)-1H-pyrido[1,2-a]pyrazine] belongs 214 to 215 °C; to `Clc1nccc(N2CCN3C[C@H](COc4ccccc4)CC[C@H]3C2)n1` (racemic) [Example 29, (7RS,9aSR)-7-Phenoxymethyl-2-(2-chloropyrimidin-4-yl)-2,3,4,6,7,8,9,9a-octahydro-1H-pyrido[1,2-a]pyrazine], 227 to 233 °C (dec.); to `c1ccc(OC[C@@H]2CC[C@H]3CN(c4cnccn4)CCN3C2)cc1` (racemic) [Example 30, (7RS,9aSR)-7-Phenoxymethyl-2-(pyrazin-2-yl)-2,3,4,6,7,8,9,9a-octahydro-1H-pyrido[1,2-a]pyrazine], 217 to 219 °C. The value for `Clc1cncc(N2CCN3C[C@H](COc4ccccc4)CC[C@H]3C2)n1` (racemic) [Example 31, (7RS,9aSR)-7-Phenoxymethyl-2-(6-chloropyrazin-2-yl)-2,3,4,6,7,8,9,9a-octahydro-1H-pyrido[1,2-a]pyrazine] was 247 °C (dec.); that for `Clc1ccc(N2CCN3C[C@H](COc4ccccc4)CC[C@H]3C2)nn1` (racemic) [Example 33, (7RS,9aSR)-7-Phenoxymethyl-2-(6-chloropyridazin-3-yl)-2,3,4,6,7,8,9,9a-octahydro-1H-pyrido[1,2-a]pyrazine] was > 265 °C (dec.). The value for `Fc1ccc2c(ccn2C[C@@H]2CC[C@H]3CN(c4ncccn4)CCN3C2)c1` (racemic) [Example 40, (7RS,9aSR)-7-(5-Fluoroindol-1-ylmethyl)-2-(pyrimidin-2-yl)-2,3,4,6,7,8,9,9a-octahydro-1H-pyrido[1,2-a]pyrazine] was 70 to 72 °C; that for `CSc1nc(N2CCN3CC(COc4ccccc4)CCC3C2)ncc1F` (stereo not drawn) [Example 4, (7RS,9aSR)-7-Phenoxymethyl-2-(5-fluoro-4-thiomethylpyrimidin-2-yl)-2,3,4,6,7,8,9,9a-octahydro-1H-pyrido[1,2-a]pyrazine] was 192 to 198 °C; that for `CSc1nc(N2CCN3CC(COc4ccc(F)cc4)CCC3C2)ncc1F` (stereo not drawn) [Example 6, (7RS,9aSR)-7-(4-Fluorophenoxy)methyl-2-(5-fluoro-4-thiomethyl-pyrimidin-2-yl)-2,3,4,6,7,8,9,9a-octahydro-1H-pyrido[1,2-a]pyrazine] was 201 to 210 °C. On to `Fc1cnc(N2CCN3C[C@H](CCc4ccccc4)CC[C@H]3C2)nc1` [Example 12, (7R,9aS)-7-(2-Phenyl)ethyl-2-(5-fluoropyrimidin-2-yl)-2,3,4,6,7,8,9,9a-octahydro-1H-pyrido[1,2-a]pyrazine], for which the melting point lay in the range of 250 to 252 °C. To `Fc1ccc(OC[C@@H]2CC[C@H]3CN(c4ccccn4)CCN3C2)cc1` [Example 18, (7R,9aS)-7-(4-Fluorophenoxy)methyl-2-(pyridin-2-yl)-2,3,4,6,7,8,9,9a-octahydro-1H-pyrido[1,2-a]pyrazine] belongs 261 to 263 °C; to `Fc1ccc(OC[C@@H]2CC[C@H]3CN(c4ccc(Cl)nn4)CCN3C2)cc1` [Example 20, (7R,9aS)-7-(4-Fluorophenoxy)methyl-2-(6-chloropyridazin-3-yl)-2,3,4,6,7,8,9,9a-octahydro-1H-pyrido[1,2-a]pyrazine], 265 to 270 °C. The value for `Nc1cc(F)ccc1N1CCN2C[C@H](COc3ccc(F)cc3)CC[C@H]2C1` [Example 24, (7R,9aS)-7-(4-Fluorophenoxy)methyl-2-(2-amino-4-fluorophenyl)-2,3,4,6,7,8,9,9a-octahydro-1H-pyrido[1,2-a]pyrazine] was 144 to 149 °C. For the compound `Fc1ccc(OC[C@@H]2CCC3CN(c4ccccc4)CCN3C2)cc1` (some centres unmarked) [Example 26], the melting point lay in the range of 247 to 252 °C. For the compound `COc1cccc(N2CCN3C[C@H](COc4ccc(F)cc4)CCC3C2)n1` (stereo partly drawn) [Example 27, (7RS,9aSR)-7-(4-Fluorophenoxy)methyl-2-(6-methoxypyridin-2-yl)-2,3,4,6,7,8,9,9a octahydro-1H-pyrido[1,2-a]pyrazine], the melting point lay within 228 to 230 °C. To `O=c1oc2ccccc2n1C[C@@H]1CC[C@H]2CN(c3ccc(Cl)cn3)CCN2C1` [Example 39, 3-[(7R,9aS)-2-(5-Chloropyridin-2-yl)-2,3,4,6,7,8,9,9a-octahydro-1H-pyrido[1,2-a]-pyrazin-7-ylmethyl]-3H-benzoxazol-2-one] belongs 247 to 248 °C; to `Fc1ccc(SC[C@@H]2CCC3CN(c4ncccn4)CCN3C2)cc1` (some centres unmarked) [Example 41], 99 to 101 °C; to `O=S(=O)(C[C@@H]1CCC2CN(c3ncccn3)CCN2C1)c1ccc(F)cc1` (stereo partly drawn) [Example 42, (7RS,9aSR)-7-(4-Fluorophenylsulfonyl)methyl-2-(pyrmidin-2-yl)-2,3,4,6,7,8,9,9a-octahydro-1H-pyrido[1,2-a]pyrazine], 155 to 157 °C. To `Fc1cnc(N2CCN3C[C@H](Cn4ccc5cc(F)ccc54)CC[C@H]3C2)nc1` [Example 43, (7R,9aS)-7-(5-Fluoroindol-1-yl)methyl-2-(5-fluoropyrimidin-2-yl)-2,3,4,6,7,8,9,9a-octahydro-1H-pyrido[1,2-a]pyrazine] belongs 180 to 182 °C. The value for `O=C1Cc2ccccc2N1C[C@@H]1CC[C@H]2CN(c3ncccn3)CCN2C1` [Example 44, 1-[(7R,9aS)-2-(Pyrimidin-2-yl)-2,3,4,6,7,8,9,9a-octahydro-1H-pyrido[1,2-a]pyrazin-7-ylmethyl]-1,3-dihydro-indol-2-one] was 174 to 176 °C.

The values above are taken from patent US7220753B2, “2,7-substituted octahydro-1H-pyrido[1,2-a]pyrazine derivatives as ligands for serotonin receptors” (Pfizer Inc., priority 1994, dated 2007).
